Assay results taken from patent US20260216348A1, “IRAK DEGRADATION AGENT AND USE THEREOF” (Increland, priority 2023, published 2026).

Columns and labels:
[1] = test system: R848-induced IL-6 secretion in human peripheral blood mononuclear cells (PBMCs); assay: Inhibition of R848-induced IL-6 secretion in human PBMCs (IL-6 ELISA); format: cell-based; conditions: PBMC, R848 2.5 μg/mL, 20 h pre-incubation, 24 h stimulation
How it was run: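 Human PBMCs at 1.25×10^6 cells/mL were preincubated for 20 h at 37 °C with compound, starting at 1 μM in 4-fold dilutions. They were then stimulated with 2.5 μg/mL R848 for 24 h. Supernatant IL-6 was measured by ELISA at OD450 against a standard curve.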

IRAK4 = target: T1, IRAK4 (Homo sapiens, UniProt Q9NWZ3); assay: IRAK4 protein degradation in THP1 cells (Western blot); format: cell-based; conditions: THP-1 cells, 24 h
T1 construct: Effect of the Compounds on IRAK4 Protein Degradation in THP1 Cells; endogenous in cells; host or cells: THP-1 cells
T1 sequence (Q9NWZ3 1-460): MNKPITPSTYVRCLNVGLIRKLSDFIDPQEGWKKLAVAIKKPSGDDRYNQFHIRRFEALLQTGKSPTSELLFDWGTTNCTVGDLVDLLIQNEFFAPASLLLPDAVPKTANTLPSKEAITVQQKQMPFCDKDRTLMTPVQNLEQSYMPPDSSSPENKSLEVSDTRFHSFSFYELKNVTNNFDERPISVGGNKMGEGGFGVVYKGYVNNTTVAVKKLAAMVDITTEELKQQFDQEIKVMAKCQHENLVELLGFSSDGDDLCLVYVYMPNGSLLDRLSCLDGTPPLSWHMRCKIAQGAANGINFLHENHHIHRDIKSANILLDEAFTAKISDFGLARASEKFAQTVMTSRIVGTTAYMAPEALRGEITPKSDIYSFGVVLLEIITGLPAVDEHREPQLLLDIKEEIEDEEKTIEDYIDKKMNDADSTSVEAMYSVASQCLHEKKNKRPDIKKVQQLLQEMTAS
How it was run: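 THP-1 cells (2×10^5/well) were treated with 5-fold serial compound dilutions for 24 h at 37 °C, then lysed with proteasome/phosphatase inhibitors. IRAK4 was detected by Western blot with chemiluminescence and semi-quantified by densitometry. DC50 came from the concentration–response.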

[2] = Pharmacokinetic experiment on SD rats (iv and intragastric); format: in vivo; conditions: Sprague-Dawley, rat, plasma, po; for bioavailability: ig 10.00 mg/kg vs iv 1.00 mg/kg, read-out: Oral bioavailability Fobs; for AUC / AUC(0-inf) / Cmax: ig, 10.00 mg/kg; for Cmax: read-out: Peak plasma concentration Cmax
[3] = Metabolic stability in human liver microsome; format: in vitro ADME; conditions: liver microsomes, NADPH, 60 min, read-out: Human liver microsome (t1/2, min)
Experimental: Clean incubation plates T60 and NCF60 were preheated at 37° C. for 10 min. Liver microsomes were diluted to a concentration of 0.56 mg/mL with 100 mM phosphate buffer, and 445 μL of the microsome working solution (0.56 mg/mL) was transferred to the preheated incubation plates T60 and NCF60, followed by incubation of the plates T60 and NCF60 with continuous shaking at 37° C. for 10 min. After incubation, 54 μL of liver microsomes were transferred to a blank plate, 6 μL of NAPDH cofactor was added to the blank plate, and then 180 μL of quenching solution was added to the blank plate. 5 μL of the compound working solution (100 μM) was added to the microsome-containing incubation plates T60 and NCF60, and mixed thoroughly 3 times. For plate NCF60, 50 μL of buffer was added and the system was mixed thoroughly 3 times before timing was started, and the plate was incubated with shaking at 37° C. for 60 min. For the quenching plate, 180 μL of quenching solution and 6 μL of NADPH cofactor were added, and the plate was ensured to be cooled to prevent evaporation. For the T60 plate, the mixture was thoroughly mixed 3 times, and 54 μL of the mixture was immediately transferred to the quenching plate at the time point of 0 min. Then 44 μL of the NAPDH cofactor was added to the incubation plate (T60). Timing was started, and the plate was incubated with shaking at 37° C. for 60 min. At the time points of 5, 15, 30, 45, and 60 min, 180 μL of the quenching solution was added to the quenching plate respectively, mixed once, and 60 μL of sample was continuously transferred from the plate T60 to the quenching plate at each time point. For plate NCF60, after mixing once, 60 μL of the sample was transferred from incubation plate NCF60 to the quenching plate containing quenching solution at the 60-min time point. All sampling plates were shaken for 10 min, then centrifuged at 4000 rpm at 4° C. for 20 min. 80 μL of the supernatant was transferred to 240 μL of HPLC water, and mixed using a plate shaker for 10 min. Each bioanalytical plate was sealed and shaken for 10 min before LC-MS/MS analysis.

DC50 (IRAK4) [nM]	bioavailability [2] [%]	AUC [2] [ng·h/mL]	AUC(0-inf) [2] [ng·h/mL]	Cmax [2] [ng/mL]	half-life at 1 µM [3] [min]	SMILES	IC50 [1] [nM]
1.56						CN(C)c1cc2nn([C@H]3CC[C@H](CN4C[C@@H](n5cc6cc(N7CCC(=O)NC7=O)ccc6n5)[C@@H](F)C4)CC3)cc2cc1NC(=O)c1cnn2cccnc12 [TM-205]	3.78
3.21	54.2	13000 ± 2900	13200 ± 2960	1330 ± 294	79.5	CN(C)c1cc2nn([C@H]3CC[C@H](CN4C[C@@H](F)[C@H](n5cc6cc(C7CCC(=O)NC7=O)ccc6n5)C4)CC3)cc2cc1NC(=O)c1cnn2cccnc12 (stereo partly shown) [TM-244]	14.4
1.41	63.7	14500 ± 1420	19000 ± 5060	1190 ± 92.3	87.4	CN(C)c1cc2nn([C@H]3CC[C@H](CN4C[C@@H](F)[C@H](n5cc6cc(C7CCC(=O)NC7=O)c(F)cc6n5)C4)CC3)cc2cc1NC(=O)c1cnn2cccnc12 (stereo partly shown) [TM-245]	4.02
2.61	29.9	7990 ± 3140	7990 ± 3120	976 ± 545	98.6	CN(C)c1cc2nn([C@H]3CC[C@H](CN4C[C@@H](F)[C@@H](n5cc6cc(C7CCC(=O)NC7=O)c(F)cc6n5)C4)CC3)cc2cc1NC(=O)c1cnn2cccnc12 (stereo partly shown) [TM-240]	2.68
2.38	38.8	8610 ± 4000	9310 ± 4680	814 ± 187	139	CN(C)c1cc2nn([C@H]3CC[C@H](CN4C[C@H](F)[C@@H](n5cc6cc(C7CCC(=O)NC7=O)c(F)cc6n5)C4)CC3)cc2cc1NC(=O)c1cnn2cccnc12 (stereo partly shown) [TM-249]	4.37
11.7	35.2	14200 ± 4660	14900 ± 4690	1650 ± 641	106	CN(C)c1cc2nn([C@H]3CC[C@H](CN4C[C@@H](n5cc6cc(C7CCC(=O)NC7=O)c(F)cc6n5)[C@@H](F)C4)CC3)cc2cc1NC(=O)c1cnn2cccnc12 (stereo partly shown) [TM-241]	9.08
1.23					65	CN(C)c1cc2nn([C@H]3CC[C@H](CN4CC[C@@H](n5cc6cc(C7CCC(=O)NC7=O)c(F)cc6n5)[C@@H](F)C4)CC3)cc2cc1NC(=O)c1cnn2cccnc12 (stereo partly shown) [TM-135]	4.53
1.24	24.5	3630 ± 1500	4160 ± 1440	356 ± 201		CN(C)c1cc2nn([C@H]3CC[C@H](CN4CCC(n5cc6c(F)cc(N7CCC(=O)NC7=O)cc6n5)CC4)CC3)cc2cc1NC(=O)c1cnn2cccnc12 [TM-174]	3.19
